Data taken from patent publication US5942494A, “Stimulation of gene expression and synthesis of heat shock protein 72/73 (HSP 70)” (The Trustees of Columbia University in the City of New York, priority 1996, dated 1999).
Peptide text beside a SMILES is read from it.

Key:
HepG2 cells = assay: Total incorporation of radiolabel (TCA cpm) as indicator of cell toxicity, HepG2; type: cell-based, human; conditions: HepG2, 4 hours; MG132 10 or 30 μM; lactacystin 10 μM
Experimental: (§1) HepG2 cells were preincubated for 4 hours in serum-free MEM and then radiolabeled with ^3 H-Leucine (150 μCi/ml) in a serum-free, leucine-free medium. Preincubation and labeling media each contained either 1.5% bovine serum albumin (BSA) alone, or BSA plus ALLN (40 μg/ml except as otherwise indicated), or BSA plus other protease inhibitors at concentrations indicated in the figure legends. At the indicated times, cells were removed from the 37° C. incubator and placed on ice, washed with cold phosphate-buffer saline (PBS) twice and lysed with lysis buffer containing 1% Triton X-100 (TX100), 1% deoxycholic acid (DOC) and 0.1% SDS in PBS containing proteinase inhibitors: 2 mM phenylmethylsulfonyl fluoride (PMSF); 2 μg/ml ALLN; 2 μg/ml leupeptin; and 2 μg/ml aprotinin. After a 30 min. incubation with lysis buffer at 4° C., the lysates were centrifuged at 14,000 g in a microcentrifuge for 5 min., and the supernatants were adjusted to 1% SDS concentration and boiled for 5 min. to denature the proteins. 1% TX100 was then added to dilute the lysates to a final concentration of 0.1% SDS. Cell lysates containing equal amounts of trichloroacetic acid (TCA)-insoluble radioactivity were used for immunoprecipitations by incubating with individual monoclonal antibody (1 μg/ml) for 2.5 hours at 4° C. Protein-A Sepharose 4B was added afterwards and the lysates incubated for another 1.5 hours at 4° C. to collect the immunocomplexes. After washing four times with 1×NET buffer (containing 0.5% TX100, 0.1% SDS), the immunocomplexes were mixed with sample buffer and boiled for 5 min. Following centrifugation, the supernatants were aliquoted for scintillation counting and for 3-15% gradient polyacrymide gel electrophoresis (SDS-PAGE) . The gels were later subjected to fluorography. All values are presented as the mean ± S.D. from three individual experiments except as otherwise indicated.

Hsp70 = Hsp70 levels by denaturing immunoprecipitation of [3H]-leucine radiolabeled HepG2 cells; type: cell-based, human
Experimental: The HepG2 cell culture conditions were maintained as previously described (Dixon, et al., 1991). The cells were seeded into collagen-pre-coated dishes or six-well tissue culture plates and grown in complete medium containing minimum essential medium (MEM) with 0.1 mM nonessential amino acids, 1.0 mM sodium pyruvate, penicillin/streptomycin, and 10% fetal bovine serum. Cells were fed fresh complete medium every 3 days and maintained in a 5% CO2 incubator. All experiments were performed by using exponentially growing cells at 90-95% confluency. For heat shock treatment, the dishes were sealed with Parafilm and immersed in a water bath at 42° C. for indicated durations of time. Cells were incubated with ALLN alone at indicated concentrations or combined with other chemicals at 37° C. Cells were also incubated with different protease inhibitors alone at indicated concentrations or combined with other chemicals at 37° C.
as §1
Denaturing immunoprecipitation was chosen because Hsp70 is a major cytosolic chaperone protein and it is co-immunoprecipitated with a number of other proteins under non-denaturingconditions (Beckmann, et al., 1990; Zhou, et al., 1995).

[1] = system: cysteine protease, serine protease, trypsin or chymotrypsin; conditions: even upon extended exposure, Ward, et al., 1995, Fenteany; cited from earlier work
hsp70 (hsp72) mRNA = assay: Northern blot of hsp70 (hsp72) mRNA in HepG2 cells; type: cell-based, human; conditions: with ALLN 40 μg/ml, 4 hours; actinomycin D 10 μg/ml; cycloheximide 50 μg/ml
Experimental: HepG2 cells were treated with serum-free MEM containing either 1.5% BSA alone (Control, lane1), BSA plus 40 μg/ml of ALLN (ALLN, lane2), ALLN and 10 μg/ml of actinomycin D (A+AD, lane3), or ALLN and 50 μg/ml of cycloheximide (A+CXM, lane4). After 4 hours treatment at 37° C., cells were harvested. (B). HepG2 cells were treated with 40 μg/ml of ALLN in the serum-free MEM for up to 0 hour (lane1), 1 hour (lane2), 2 hours (lane3), and 3 hours (lane4) and then harvested without recovery. Or after treatment for 3 hours in the presence of ALLN as above, the ALLN containing medium were removed, cells were washed and fed fresh medium containing only BSA for recovery of up to 1 hour (lane5), 3 hours (lane6), 5 hours (lane7) or 7 hours (lane8). The total RNA was prepared, and equal amounts of the samples were loaded and run on a 1% formaldehyde-agarose gel, blotted onto a nylon membrane, and subsequently hybridized with specific synthetic oligonucleotide probes for hsp70 mRNA as described under Experimental Details. The position of 28S and 18S rRNA are shown for reference.
Total RNA was prepared using the procedure of Chomczynski and Sacchi (Chomczynski, et al., 1987) and a commercially prepared reagent, TRISOLV™ (Biotecx Laboratories Inc., Tex.) . Equal amounts of tRNA samples (10 μg) were size-fractionated on a 1% agarose-formaldehyde gel according to the methods described (Maniatis, et al., 1982) and transferred to a piece of QIAGEN plus nylon membrane. To determine loading and transfer efficiency, RNA was stained with ethidium bromide before and after transfer. The membrane was baked for 30 min. at 80° C. in vacuo (a vacuum) followed by UV cross-linking. It was then incubated for 4 hours at 65° C. in a prehybridization mixture containing 10% dextran sulfate, 1% SDS, 1M sodium chloride, 50 mM Tris-HCl (pH 7.5) and 100 μg/ml denatured salmon sperm DNA. Hybridization was carried out for 18 hours at 65° C. in the same buffer with a ^32 P-labeled (1×10^6 cpm/ml) 40-mer oligonucleotide probe to the untranslated 5' region of a human hsp70 gene (Oncogene Science). […] The membrane was then washed four times with 2×SSC, 0.1% SDS at room temperature, one time at 65° C. for 30 min., and one time at room temperature again for 5 min., and finally rinsed with 2×SSC at room temperature. This membrane was air dried and exposed to X-ray film at -80° C. for 48 hours.
Total RNA was isolated from HepG2 cells which had been incubated for 4 hours at 37° C. (FIG. 5A) with MEM containing BSA alone (Control, lane1), BSA plus 40 μg/ml of ALLN (ALLN, lane2), BSA plus ALLN and […] of actinomycin D (A+AD, lane3) or BSA plus ALLN and 50 μg/ml of cycloheximide (A+CXM, lane4). A radioprobe containing a unique sequence specific for the 5' untranslated region of hsp72 (inducible form) (Freeman et al., 1993) was used for Northern blot analysis.

HSF1 = assay: EGS cross-linking and Western blot of HSF1 oligomeric forms in HepG2 cells; type: cell-based, human; conditions: cycloheximide 50 μg/ml with ALLN 40 μg/ml, 2 hours
Experimental: FIGS. 6A-6B: ALLN affects the trimerization of HSF. HepG2 cells were treated with serum-free MEM containing 1.5% BSA for 2 hours at 37° C. without any additions (lane1), at 37 ° C. but containing 40μg/ml of ALLN in the medium (lane2), at 37° C. in a medium containing both ALLN and 50 μg/ml of cycloheximide (lane3) , at 42° C. alone (lane4), or at 42° C. plus cycloheximide in the medium (lane5). Cell lysates were prepared as described under Experimental Details. The lysates were either directly run on the SDS-PAGE (A) to show the steady-state protein levels of HSF1 or subjected to cross-linking with ethylene glycol bis sucrinimidylsuccinate (EGS) before running the gel (B) to show the oligomeric forms of HSF1. The proteins were then transfered to a nitrocellulose membrane and immunoblotted with anti-human HSF1 antibody. Arrows on the right side indicates the monomeric, dimeric or trimeric forms of HSF1, respectively. This experiment was repeated three times with identical results.
For measurement of the steady-state HSF1 protein levels, whole cell extracts were prepared by lysing the cells directly with 2×SDS-sample buffer (Maniatis, et al., 1982). For chemical cross-linking experiments, whole-cell extracts were prepared as described (Mosser, et al., 1988). Briefly, the cold PBS-washed cell pellets were quickly and repeatedly frozen in liquid nitrogen. […]

apoB = conditions: Sakata, et al., 1993, unpublished data; cited from earlier work
proteasomes = conditions: Rock, et al., 1994; cited from earlier work
[2] = system: 3-hydroxy-3-methylglutaryl-coenzyme A (HMG-CoA) reductase; conditions: Inoue, et al., 1991; cited from earlier work
cathepsin B = cathepsin B (Homo sapiens, UniProt P07858); conditions: Rock, et al., 1994; cited from earlier work
calpain = conditions: Rock, et al., 1994; cited from earlier work

Question: Which “Toxicity to the cells (TCA-precipitable radioactivities)” value (HepG2 cells) does the source give for CC(=O)N[C@@H](CSC(=O)[C@]1([C@@H](O)C(C)C)NC(=O)[C@H](C)[C@@H]1O)C(=O)O [lactacystin] here?
Answer: without obvious toxicity

Question: And the “Induction of Hsp70 levels by proteasome inhibitors” value (Hsp70; HepG2, 4 hours, MG132 10 μM or 30 μM, lactacystin 10 μM, 30 min radiolabeling)?
Answer: induced Hsp70 levels dramatically

Question: What about the “Effect on cysteine protease, serine protease, trypsin or chymotrypsin” value [1] of the same molecule?
Answer: no detectable effect

Question: Which “Effect of co-treatment on ALLN-induced hsp70 (hsp72) mRNA” value (hsp70 (hsp72) mRNA) does the source give for C[C@@H]1C[C@@H]([C@H](O)CC2CC(=O)NC(=O)C2)C(=O)[C@@H](C)C1 [cycloheximide] here?
Answer: abolished

Question: And the “Effect of co-treatment on ALLN-induced HSF1 trimerization” value (HSF1)?
Answer: abolished the effect of ALLN on HSF1 trimerization

Question: For CSCC[C@@H](C=O)NC(=O)[C@H](CC(C)C)NC(=O)[C@H](CC(C)C)NC(C)=O [ALLM, N-acetyl-leucyl-leucyl-methioninal] (Ac-Leu-Leu-Met-aldehyde), which “Ability to induce Hsp70 levels compared with ALLN” value (Hsp70; HepG2, 40 μg/ml, 4 hours) is on record?
Answer: less ability to induce Hsp70 levels

Question: And the “Induction of Hsp70 by protease inhibitors” value (Hsp70; HepG2, 4 hours pre-treatment, ALLN, ALLM 40 μg/ml, leupeptin, pepstatin A 50 μg/ml, E-64d 25 μg/ml, PMSF 1 mM, aprotinin 100 KIU/ml, Benz 1 mM, CIP 200 μM)?
Answer: significantly induce

Question: What about the “Protection of apoB” value (apoB) of the same molecule?
Answer: less effectively

Question: What about the Inhibition of proteasomes (proteasomes) of the same molecule?
Answer: potent inhibitors

Question: And the “Protection of HMG-CoA reductase” value [2]?
Answer: less effectively

Question: What about the “Activity against cathepsin B” value (cathepsin B) of the same molecule?
Answer: significant activities

Question: What about the Activity against calpain (calpain) of the same molecule?
Answer: significant activities
